For series [1], the target named is T1, AlgKPp (Pseudomonas putida, UniProt Q88NC7). The series can be described thus: Direct ESI-MS alginate binding assay, AlgKPp. On the set-up: Induced cells containing either pET26b P. putida AlgK^33–484 or pET24b P. putida AlgX^∆Nterm; His6 (C); made in house; host or cells: E. coli BL21 (DE3) CodonPlus. Conditions: 200 mM aqueous ammonium acetate, pH 7, 25 °C, errors one standard deviation, nb = no binding detected. The method, then:
(§1) AlgXPp and AlgKPp stock solutions were buffer exchanged into 200 mM aqueous ammonium acetate (pH 7) using a 10 kDa cut-off Amicon 0.5 mL microconcentrators (EMD, Millipore, Billerica, MA). Stock solutions of oligosaccharides were prepared by dissolving a known amount of solid compound in Milli-Q water and stored at −20 °C until used. Nanoelectrospray (nanoESI) mass spectrometry measurements were performed on a Q Exactive Orbitrap (Orbitrap) mass spectrometer (Thermo Fisher Scientific, Bremen, Germany) and on a Q Exactive Ultra-High Mass Range Orbitrap mass spectrometer (Thermo Fisher Scientific, Bremen, Germany), both equipped with a nanoflow ESI source. […]
(§2) Association constants (Ka,kL and Ka,xL) for interactions of AlgKPp and AlgXPp with oligosaccharide ligands were obtained using the direct ESI-MS assay[68],[69]. […] Ka,kL and Ka,xL values were determined from the abundance ratio (R) of the ligand-bound (PL) to free protein (P) ions (P can be AlgKPp or AlgXPp), after correction for nonspecific ligand binding, and the initial concentrations of protein ([P]0) and ligand ([L]0), Eq. (1):1 R/R+1=KaP0+KaL0+1−(1−KaL0+KaP0)^2+4KaL0/2KaP0 where R is taken to be equal to the corresponding equilibrium concentration ratio ([PL]/[P]) in solution, Eq. (2):2 R=∑Ab(PL)/∑Ab(P)=[PL]/[P] and Ka is Ka,kL or Ka,xL.

Series [2] deals with AlgKXPp (Pseudomonas putida, UniProt Q88NC7+Q88ND0). The series can be described thus: NanoESI-MS ligand titration of the AlgK-AlgX mixture, Ka,kxL fitted from the ligand-bound fraction of the complex with a coupled-equilibria model, 200 mM aqueous ammonium acetate pH 7, 25 °C by the table title (21 °C in the methods). The class given is binding. As to conditions: n = 3; read-out: Ka (M^-1) (AlgKXPp). Here is the method:
(§3) AlgXPp and AlgKPp stock solutions were buffer exchanged into 200 mM aqueous ammonium acetate (pH 7) using a 10 kDa cut-off Amicon 0.5 mL microconcentrators (EMD, Millipore, Billerica, MA). Stock solutions of oligosaccharides were prepared by dissolving a known amount of solid compound in Milli-Q water and stored at −20 °C until used. Nanoelectrospray (nanoESI) mass spectrometry measurements were performed on a Q Exactive Orbitrap (Orbitrap) mass spectrometer (Thermo Fisher Scientific, Bremen, Germany) and on a Q Exactive Ultra-High Mass Range Orbitrap mass spectrometer (Thermo Fisher Scientific, Bremen, Germany), both equipped with a nanoflow ESI source. NanoESI was performed by applying a voltage of ~0.8 kV to a platinum wire inserted into the nanoESI tip, which was produced from a borosilicate glass capillary (1.0 mm o.d., 0.78 mm i.d.) pulled to ~2 μm o.d. using a P − 1000 micropipette puller (Sutter Instruments, Novato, CA). The inlet capillary of the MS was heated to 120 °C, the S-lens RF level was set at 100, automatic gain control target was set at 1 × 10^6 with a maximum injection time of 200 ms. All MS data were acquired and processed using Thermo Xcalibur 4.1 software.
The Ka,kx for the interaction of AlgKPp and AlgXPp with the formation of AlgKXPp complex was obtained using the Slow Mixing Mode (SLOMO) ESI-MS assay. Briefly, ~2 µL of a solution of AlgXPp (5 µM) and AlgKPp (3–10 µM) was introduced into the nanoESI tip, followed by injection of 10 µL of solution of AlgXPp (5 µM) and AlgKPp (45 µM). The binding measurements were carried out at 21 °C; time-resolved mass spectra were averaged over 1 min intervals and the sum of the charge state-normalized abundances of the […] and AlgKXPp complex ions were calculated automatically using the SWARM software (https://github.com/pkitov/CUPRA-SWARM)[72]. The corrected (for response factors) abundances of AlgXPp and AlgKXPp species were used to calculate R/(R+1) values for AlgKPp (designated as L) and AlgXPp (designated as P) interaction and association constant Ka,kx was found using Eq. (1) (Ka,kx in this case designated as Ka in Eq. (1)).
(§4) 3b AlgXPpL⇌AlgXPp+L,Ka,xL=[AlgXPpL]/AlgXPp[L] 3c AlgKXPp⇌AlgKPp+AlgXPp,Ka,kx=[AlgKXPpL]/AlgKPp[AlgXPp] 3d AlgKXPpL⇌AlgKXPp+L,Ka,kxL=[AlgKXPL]/AlgKXPpLL
(§5) The corresponding mass balance equations are shown below:4a [L]0=[L]+[AlgKPpL]+[AlgXPpL]+[AlgKXPpL] 4b [AlgKPp]0=[AlgKPp]+[AlgKPpL]+[AlgKXPp]+[AlgKXPpL] 4c [AlgXPp]0=[AlgXPp]+[AlgXPpL]+[AlgKXPp]+[AlgKXPpL] where […], […], and [L]0 are initial concentrations of AlgKPp, AlgXPp, and oligosaccharide ligand L; Ka,kL, Ka,xL, and Ka,kx are association constant values determined as described above, and Ka,kxL is unknown parameter found by the fitting of the model to experimental data.

Series [3] deals with T1, AlgKPp. The series can be described thus: Direct nanoESI-MS binding assay of the single proteins with reference protein correction for nonspecific binding, 200 mM aqueous ammonium acetate pH 7, 25 °C by the table title (21 °C in the methods). As to conditions: read-out: Ka (M^-1) (AlgKPp); Ka (M^-1) (AlgXPp). On the set-up: gene algK. Here is the method:
as §3
(§6) Association constants (Ka,kL and Ka,xL) for interactions of AlgKPp and AlgXPp with oligosaccharide ligands were obtained using the direct ESI-MS assay[68],[69]. The binding measurements were carried out at 21 °C, and the equilibrium mixtures were prepared by mixing aliquots of the stock solutions of proteins and ligands in aqueous ammonium acetate (200 mM). ESI-MS measurements were performed after a 1 h incubation time period. All mass spectra were corrected, when needed, for the occurrence of nonspecific carbohydrate-protein binding during the ESI process using the reference protein method. Ka,kL and Ka,xL values were determined from the abundance ratio (R) of the ligand-bound (PL) to free protein (P) ions (P can be AlgKPp or AlgXPp), after correction for nonspecific ligand binding, and the initial concentrations of protein ([P]0) and ligand ([L]0), Eq. (1):1 R/R+1=KaP0+KaL0+1−(1−KaL0+KaP0)^2+4KaL0/2KaP0 where R is taken to be equal to the corresponding equilibrium concentration ratio ([PL]/[P]) in solution, Eq. (2):2 R=∑Ab(PL)/∑Ab(P)=[PL]/[P] and Ka is Ka,kL or Ka,xL.

The target in series [4] is T2, AlgKXPp complex (Pseudomonas putida, UniProt Q88NC7+Q88ND0).
T2 construct: Induced cells containing either pET26b P. putida AlgK^33–484 or pET24b P. putida AlgX^∆Nterm; His6 (C); made in house; host or cells: E. coli BL21 (DE3) CodonPlus (AlgK) and E. coli Lemo21 (DE3) (AlgX)
T2 sequence (Q88ND0 25-479): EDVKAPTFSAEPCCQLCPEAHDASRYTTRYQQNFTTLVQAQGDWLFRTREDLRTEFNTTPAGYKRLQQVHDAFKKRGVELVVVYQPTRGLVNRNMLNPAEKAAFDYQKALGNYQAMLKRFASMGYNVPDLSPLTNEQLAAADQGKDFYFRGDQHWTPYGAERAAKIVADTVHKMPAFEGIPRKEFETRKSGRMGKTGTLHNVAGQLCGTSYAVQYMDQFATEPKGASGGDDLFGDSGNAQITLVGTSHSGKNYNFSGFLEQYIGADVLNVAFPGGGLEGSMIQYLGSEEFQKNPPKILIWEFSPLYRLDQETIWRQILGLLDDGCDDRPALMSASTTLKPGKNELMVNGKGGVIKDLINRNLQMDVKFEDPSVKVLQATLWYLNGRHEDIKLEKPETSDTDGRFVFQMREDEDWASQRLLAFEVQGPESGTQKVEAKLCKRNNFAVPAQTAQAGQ
T2 sequence (Q88NC7 33-484): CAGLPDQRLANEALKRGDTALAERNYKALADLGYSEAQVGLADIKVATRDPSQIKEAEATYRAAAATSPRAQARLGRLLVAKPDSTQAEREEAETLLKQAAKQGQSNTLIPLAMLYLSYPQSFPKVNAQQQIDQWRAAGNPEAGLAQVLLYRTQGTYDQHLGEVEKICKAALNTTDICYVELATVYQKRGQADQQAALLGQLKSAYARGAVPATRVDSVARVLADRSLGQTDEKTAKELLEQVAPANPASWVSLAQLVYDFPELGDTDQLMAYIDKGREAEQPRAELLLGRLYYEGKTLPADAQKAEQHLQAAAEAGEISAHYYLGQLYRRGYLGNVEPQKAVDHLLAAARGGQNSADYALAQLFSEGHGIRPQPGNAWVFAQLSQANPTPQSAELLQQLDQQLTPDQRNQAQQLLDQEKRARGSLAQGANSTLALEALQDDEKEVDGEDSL
The series can be described thus: ESI-MS alginate binding assay, AlgKXPp complex (binding model fit). As to conditions: for Ka (M^−1) (AlgKXPp), apparent association constant: ESI-MS, 200 mM aqueous ammonium acetate, pH 7, 25 °C, errors one standard deviation; for fraction of AlgKXPp bound to ligand: ammonium acetate (200 mM, pH 7.0), mean, n = 3. Here is the method: as §3, §4, §5

For series [5], the target named is T3, AlgXPp (Pseudomonas putida, UniProt Q88ND0). In words: Direct nanoESI-MS binding assay of the single proteins with reference protein correction for nonspecific binding, 200 mM aqueous ammonium acetate pH 7, 25 °C by the table title (21 °C in the methods). On the set-up: gene algX. As to conditions: read-out: Ka (M^-1) (AlgKPp); Ka (M^-1) (AlgXPp). The method, then: as §3, §6
Target sequence in this assay (Q88ND0 whole entry): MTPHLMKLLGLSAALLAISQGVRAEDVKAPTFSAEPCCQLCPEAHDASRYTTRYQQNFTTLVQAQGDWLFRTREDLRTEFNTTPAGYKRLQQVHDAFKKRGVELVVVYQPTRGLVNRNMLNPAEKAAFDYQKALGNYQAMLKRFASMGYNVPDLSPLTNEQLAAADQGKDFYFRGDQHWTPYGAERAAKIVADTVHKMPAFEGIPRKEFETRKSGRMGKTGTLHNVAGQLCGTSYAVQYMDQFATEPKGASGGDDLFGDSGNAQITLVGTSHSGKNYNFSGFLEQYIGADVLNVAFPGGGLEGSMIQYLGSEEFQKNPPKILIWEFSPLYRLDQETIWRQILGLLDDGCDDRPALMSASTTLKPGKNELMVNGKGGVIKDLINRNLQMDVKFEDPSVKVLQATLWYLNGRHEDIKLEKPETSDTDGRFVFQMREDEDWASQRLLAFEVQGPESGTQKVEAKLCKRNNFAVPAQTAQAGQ

Series [6] has as its target T3, AlgXPp. The series can be described thus: Direct ESI-MS alginate binding assay, AlgXPp. As to conditions: 200 mM aqueous ammonium acetate, pH 7, 25 °C, errors one standard deviation. On the set-up: His6 (C); made in house; host or cells: E. coli Lemo21 (DE3). Here is the method:
as §1, §2
Target sequence in this assay (Q88ND0 25-479): as the sequence (Q88ND0 25-479) above

Series [7] has as its target T3, AlgXPp. In words: Acetylesterase activity assay, 3-carboxyumbelliferyl acetate, AlgX. The class given is biochemical. The arrangement: His6 (C); made in house; host or cells: E. coli Lemo21 (DE3). Conditions: AlgX alone; linear regression of raw values minus buffer blank vs time (s); exp1 and exp2, triplicates; Supp. Fig. 14b. Here is the method:
(§7) The assay was performed as previously described in refs. [19], [29] with minor modifications. Briefly, standard reactions contained 5 μM protein (AlgKPp, AlgXPp, or AlgKPp-AlgXPp complex) in 50 mM sodium HEPES pH 7.0 and 75 mM NaCl. Reactions were initiated with the addition of pNP-acetate dissolved in ethanol to 2.5 mM. Alginate substrates were added at a final concentration of 0.5 mg/mL. Alginate substrates were purified as previously described[62] from FRD1[66] and FRD462[67]. The hydrolysis and removal of an acetate group from pNP-acetate was monitored in real-time for 10 min at 405 nm for the appearance of p-nitrophenyl. The background hydrolysis rate of pNP-acetate in the absence of enzymes was measured and subtracted from reaction rates. For Supplementary Fig. 11b, a similar assay was performed as previously described in ref. [19], with minor modifications. Briefly, Briefly, standard reactions contained 5 μM protein (AlgKPp, AlgXPp, or AlgKPp-AlgXPp complex) in 50 mM sodium HEPES pH 7.0 and 75 mM NaCl. […] The hydrolysis and removal of an acetate group from 3-carboxyumbelliferyl acetate was monitored in real-time for 10 min using an excitation of 386 nm and an emission of 447 nm. The background hydrolysis rate of 3-carboxyumbelliferyl acetate in the absence of enzymes was measured and subtracted from reaction rates. Data were analysed using GraphPad Prism 9 (Dotmatics).
Target sequence in this assay (Q88ND0 25-479): as above

The target of series [8] is T3, AlgXPp. In words: Acetylesterase activity assay, pNP-acetate, AlgXPp. The class given is biochemical. The arrangement: His6 (C); made in house; host or cells: E. coli Lemo21 (DE3). As to conditions: pNP-acetate pseudosubstrate; sample as labelled (AlgX alone, Man10 alone, AlgX+Man10); single technical replicates. Here is the method: as §7
Target sequence in this assay (Q88ND0 25-479): as above
[9] abbreviates: initial ligand concentration 50 µM.
The mark [10] stands for this setting: initial ligand concentration 100 µM.
Setting [11] is: initial ligand concentration 155 µM.
Where [12] appears, read: initial ligand concentration 211 µM.
Where [13] appears, read: initial ligand concentration 265 µM.
The mark [14] stands for this setting: initial ligand concentration 322 µM.

Where “and” joins values, the source holds several entries; their conditions need not be identical. Identical values can stand only once.

T1 sequence (Q88NC7 33-484): as the sequence (Q88NC7 33-484) above
AlgKXPp, sequence (Q88ND0 whole entry): as the sequence (Q88ND0 whole entry) above
AlgKXPp, sequence (Q88NC7 33-484): as the sequence (Q88NC7 33-484) above

Regarding `CCCO[C@@H]1O[C@H](C(=O)O)[C@@H](O[C@@H]2O[C@H](C(=O)O)[C@@H](O[C@@H]3O[C@H](C(=O)O)[C@@H](O[C@@H]4O[C@H](C(=O)O)[C@@H](O[C@@H]5O[C@H](C(=O)O)[C@@H](O[C@@H]6O[C@H](C(=O)O)[C@@H](O)[C@H](O)[C@@H]6O)[C@H](O)[C@@H]5O)[C@H](O)[C@@H]4O)[C@H](O)[C@@H]3O)[C@H](O)[C@@H]2O)[C@H](O)[C@@H]1O` [ManA6], in series [1], the “Ka (M^−1) (AlgKPp), apparent association constant” value is reported as “(3.1 ± 0.5) × 10^2 M^−1”. Moreover, the Kd in series [2] was determined as 1.28 mM; in series [3], 3.23 mM; in series [5] it was 5.26 mM. Further, the “Ka (M^−1) (AlgKXPp), apparent association constant” value in series [4] is recorded as “(7.8 ± 0.8) × 10^2 M^−1”. Besides, the “fraction of AlgKXPp bound to ligand” value stood at 0.04 in series [4] (setting [9]); 0.08 in series [4] (setting [10]); 0.11 in series [4] (setting [11]); 0.11 in series [4] (setting [12]); 0.16 in series [4] (setting [13]); 0.22 in series [4] (setting [14]). In series [6], the “Ka (M^−1) (AlgXPp), apparent association constant” value is “(1.9 ± 0.7) × 10^2 M^−1”.

Consider `CCCO[C@@H]1O[C@H](C(=O)O)[C@@H](O[C@@H]2O[C@H](C(=O)O)[C@@H](O[C@@H]3O[C@H](C(=O)O)[C@@H](O[C@@H]4O[C@H](C(=O)O)[C@@H](O[C@@H]5O[C@H](C(=O)O)[C@@H](O[C@@H]6O[C@H](C(=O)O)[C@@H](O[C@@H]7O[C@H](C(=O)O)[C@@H](O)[C@H](O)[C@@H]7O)[C@H](O)[C@@H]6O)[C@H](O)[C@@H]5O)[C@H](O)[C@@H]4O)[C@H](O)[C@@H]3O)[C@H](O)[C@@H]2O)[C@H](O)[C@@H]1O` [ManA7], for which the “Ka (M^−1) (AlgKPp), apparent association constant” value in series [1] is “(4.2 ± 0.4) × 10^2 M^−1”. In addition, the “Ka (M^−1) (AlgKXPp), apparent association constant” value in series [4] is “(10 ± 1.0) × 10^2 M^−1”. In addition, the “fraction of AlgKXPp bound to ligand” value in series [4] (setting [9]) was found to be 0.028; in series [4] (setting [10]) it was 0.08; in series [4] (setting [11]), 0.15; in series [4] (setting [12]) it was 0.20; in series [4] (setting [13]), 0.21; in series [4] (setting [14]), 0.24. For the same compound, the “Ka (M^−1) (AlgXPp), apparent association constant” value in series [6] was “(2.6 ± 0.3) × 10^2 M^−1”.

In the case of “AlgX: P. putida KT2440 AlgX 1–479, His-tagged terminal alginate acetyltransferase”, the “slope values used in graph” value in series [7] was 20818 and 20884 and 19338 and 14321 and 14083 and 15487. Further, the “slope values: rate of acetylesterase activity, absorbance value at 405 nm per second” value in series [8] is 5.128e-5 and 6.734e-5 and 4.103e-5.

The values above are taken from publication PMC9734138, “Structure of the AlgKX modification and secretion complex required for alginate production and biofilm attachment in Pseudomonas aeruginosa” (Nature Communications, 2022).
